Experimental data as given in patent US20240287082A1, “NEW BENZODIAZEPINE DERIVATIVES AS GABA A GAMMA1 PAM” (Hoffmann-La Roche Inc., priority 2021, published 2024).
Like-named read-outs stand apart in the source and are kept apart here.

Columns and labels:
h-GABA-A α2β2γ1 = h-GABA-A α2β2γ1 (Homo sapiens (Human), UniProt P47869+Q8N1C3); assay: Two-electrode voltage clamp electrophysiology in Xenopus oocytes expressing GABAA receptors, modulation of GABA EC20 current; format: cell-based; conditions: for Efficacy (GABA) %: % modulation of GABA EC20 = 100*(Fold increase−1), compound at 30-fold Ki α2β2γ1; for Fold increase h-GABA-A α2β2γ1 oocyte @ 30-fold Ki: Xenopus oocytes, GABA EC20, test compound at approx. 30-fold its Ki α2β2γ1
Experimental: Xenopus laevis oocytes at maturation stages V-VI were used for the expression of cloned mRNA encoding GABAA receptor subunits. Oocytes ready for RNA micro-injection were bought from Ecocyte, Castrop-Rauxel, Germany and stored in modified Barth's medium (composition in mM: NaCl 88, KCl 1, NaHCO3 2.4, HEPES 10, MgSO4 0.82, CaNO3 0.33, CaCl2 0.33, pH=7.5) at 20° C. until the experiment.
Oocytes were plated in 96-well plates for microinjection using the Roboinject automated instrument (MultiChannelSystems, Reutlingen, Germany). Approximately 50 nL of an aqueous solution containing the RNA transcripts for the subunits of the desired GABAA receptor subtype was injected into each oocyte. […] Oocytes were kept in modified Barth's medium (composition in mM: NaCl 88, KCl 1, NaHCO3 […], HEPES 10, MgSO4 0.82, CaNO3 0.33, CaCl2 0.33, pH=7.5) at 20° C. until the experiment.
Electrophysiological experiments were performed using the Roboocyte instrument (MultiChannelSystems, Reutlingen, Germany) on days 3 to 5 after the micro-injection of mRNA. During the experiment the oocytes were constantly superfused by a solution containing (in mM) NaCl 90, KCl 1, HEPES 5, MgCl2 1, CaCl2 1 (pH 7.4). Oocytes were impaled by two glass microelectrodes (resistance: 0.5-0.8 MΩ) which were filled with a solution containing KCl 1M+K-acetate 1.5 M and voltage-clamped to −80 mV. The recordings were performed at room temperature using the Roboocyte two-electrode voltage clamp system (Multichannelsystem). After an initial equilibration period of 1.5 min GABA was added for 1.5 min at a concentration evoking approximately 20% of a maximal current response (EC20). After another rest interval of 2.5 min GABA was again added evoking a response of similar amplitude and shape. […] Current traces were recorded at a digitization rate of 10 Hz during and shortly before and after the GABA application.
Each compound and concentration was tested on at least 3 oocytes. Different oocytes were used for different compound concentrations.
For the analysis, the digitized current traces of the first and second GABA response were superimposed and, if necessary, rescaled to equal maximal amplitudes. The ratio between the two responses during the time interval of test compound application was calculated point by point. The extremum of the resulting “ratio trace” was taken as the efficacy (“Fold increase”) of the compound expressed as “% modulation of GABA EC20” (100*(Fold increase−1)).

[1] = target: human GABAA α5β2γ1 receptor (Homo sapiens (Human), UniProt P31644+Q8N1C3); assay: Radioligand binding assay, competition for [3H]RO7239181, γ1-containing GABAA subtype α5β2γ1
Experimental: The affinity of compounds at GABAA γ1 subunit-containing receptors was measured by competition for [^3H]RO7239181 (67.3 Ci/mmol; Roche) binding to membranes from HEK293F cells (ThermoFisher R^79007) expressing human (transiently transfected) receptors of composition α5β2γ1, α2β2γ1, α1β2γ1. For better protein expression of the α2 subunit-containing receptors, the 28 amino acid long signal peptide (Met1 to Ala28)of the human GABAA α2 subunit was substituted by the 31 amino acid long signal peptide (Met1 to Ser31) of human GABAA α5 subunit.
Harvested pellets from HEK293F cells expressing the different GABAA receptor subtypes were resuspended in Mannitol Buffer pH 7.2-7.4 (Mannitol 0.29M, Triethylamine 10 mM, Acetic acid 10 mM, EDTA 1 mM plus protease inhibitors (20 tablets Complete, Roche Diagnostics Cat. No. 05 056 489 001 per liter)), washed two times and then resuspended at 1:10 to 1:15 dilution in the same buffer. Cell disruption was performed by stirring the suspension in a Parr vessel #4637 at 435 psi for 15 minutes, and then the suspensions were centrifuged at 1000×g for 15 minutes at 4° C. (Beckman Avanti J-HC: rotor JS-4.2). The supernatant (S1) was transferred in a 21 Schott flask and the pellet (P1) was resuspended with Mannitol Buffer up to 175 ml. The resuspended pellet was transferred into a 250 ml Corning centrifugal beaker and centrifuged at 1500×g for 10 minutes at 4° C. (Beckman Avanti J-HC: rotor JS-4.2). The supernatant (S1) was then transferred in the 21 Schott flask and the pellet was discarded. The supernatants (S1) were centrifuged in 500 ml Beckman polypropylene centrifugal beaker at 15 000×g for 30 minutes at 4° C. (Beckman Avanti J-20 XP: rotor JLA-10.500). The pellet (P2) was resuspended with Mannitol Buffer 1:1 and frozen at −80° C. The supernatant (S2) was centrifuged in 100 ml Beckman polypropylene centrifugal tubes at 48000×g for 50 minutes at 4° C. (Beckman Avanti J-20 XP: rotor JA-18). The supernatant (S3) was discarded and the pellet (P3) was resuspended with 1:1 Mannitol Buffer. The P2 and P3 protein concentration was determined with the BIORAD Standard assay method with bovine serum albumin as standard and measured on the NANO-Drop 1000. The membrane suspension was aliquots (500 μl per tube) and stored at −80° C. until required.
Membrane homogenates were resuspended and polytronised (Polytron PT1200E Kinematica AG) in Potassium Phosphate 10 mM, KCl 100 mM binding buffer at pH 7.4 to a final assay concentration determined with a previous experiment.
Radioligand binding assays were carried out in a volume of 200 μL (96-well plates) which contained 100 μL of cell membranes, [3H]RO7239181 at a concentration of 1.5 nM (α5β2γ1) or 20-30 nM (α1β2γ1, α2β2γ1) and the test compound in the range of [0.3-1000]×10^−9 M. Nonspecific binding was defined by 10×10^−6 (α5β2γ1) and 30×10^−6 M RO7239181 and typically represented less than 5% (α5β2γ1) and less than 20% (α1β2γ1, α2β2γ1) of the total binding. Assays were incubated to equilibrium for 1 hour at 4° C. and then, membranes were filtered onto unifilter (96-well white microplate with bonded GF/C filters preincubated 20-50 minutes in 0.3% Polyethylenimine) with a Filtermate 196 harvester (Packard BioScience) and washed 4 times with cold Potassium Phosphate 10 mM pH 7.4, KCl 100 mM binding buffer. After anhydrousing, filter-retained radioactivity was detected by liquid scintillation counting. Ki values were calculated using Excel-Fit (Microsoft) and are the means of two determinations.

[2] = membranes of HEK293F cells, [3H]RO7239181 1.5 nM, mean of two determinations, read-out: Ki h-GABAA α5β2γ1

| Compound | Efficacy (GABA) % (h-GABA-A α2β2γ1) [%] | Fold increase h-GABA-A α2β2γ1 oocyte @ 30-fold Ki (h-GABA-A α2β2γ1) | Ki [1, 2] [nM] | Ki [1] [nM] |
| --- | --- | --- | --- | --- |
| CCOCCc1cn2c(nc1=O)[C@H](C)N=C(c1c(F)cccc1F)c1c-2ccc(Cl)c1Cl [Example 21, (5S)-8,9-dichloro-7-(2,6-difluorophenyl)-2-(2-ethoxyethyl)-5-methyl-5H-pyrimido[1,2-a][1,4]benzodiazepin-3-one] | 113 | 2.13 | 3.4 | – |
| C[C@@H]1N=C(c2c(F)cccc2F)c2c(ccc(C(F)(F)F)c2Cl)-n2ccc(=O)nc21 [Example 10, (5S)-8-chloro-7-(2,6-difluorophenyl)-5-methyl-9-(trifluoromethyl)-5H-pyrimido[1,2-a][1,4]benzodiazepin-3-one] | 164 | 2.64 | – | 3 |
| CCOCCc1cn2c(nc1=O)CN=C(c1c(F)cccc1F)c1c-2ccc(C(F)(F)F)c1Cl [Example 26, 8-chloro-7-(2,6-difluorophenyl)-2-(2-ethoxyethyl)-9-(trifluoromethyl)-5H-pyrimido[1,2-a][1,4]benzodiazepin-3-one] | 113 | 2.13 | 21.6 | – |
| O=c1ccn2c(n1)CN=C(c1c(F)cccc1F)c1c-2ccc(Cl)c1Cl [Example 2, 8,9-dichloro-7-(2,6-difluorophenyl)-5H-pyrimido[1,2-a][1,4]benzodiazepin-3-one] | 88 | 1.88 | – | 1.1 |
| C[C@@H]1N=C(c2c(F)cccc2F)c2c(ccc(Cl)c2Cl)-n2ccc(=O)nc21 [Example 4, (5S)-8,9-dichloro-7-(2,6-difluorophenyl)-5-methyl-5H-pyrimido[1,2-a][1,4]benzodiazepin-3-one] | 105 | 2.05 | – | 1.5 |
| Cc1cn2c(nc1=O)[C@H](C)N=C(c1c(F)cccc1F)c1c-2ccc(C(F)(F)F)c1Cl [Example 9, (5S)-8-chloro-7-(2,6-difluorophenyl)-2,5-dimethyl-9-(trifluoromethyl)-5H-pyrimido[1,2-a][1,4]benzodiazepin-3-one] | 99 | 1.99 | – | 3.1 |
| CNC(=O)c1cn2c(nc1=O)[C@H](C)N=C(c1c(F)cccc1F)c1c-2ccc(C(F)(F)F)c1Cl [Example 27, (5S)-8-chloro-7-(2,6-difluorophenyl)-N,5-dimethyl-3-oxo-9-(trifluoromethyl)-5H-pyrimido[1,2-a][1,4]benzodiazepine-2-carboxamide] | 113 | 2.13 | 6.2 | – |
| CCOCCc1cn2c(nc1=O)[C@H](C)N=C(c1c(F)cccc1F)c1c-2ccc(C(F)(F)F)c1Cl [Example 20, (5S)-8-chloro-7-(2,6-difluorophenyl)-2-(2-ethoxyethyl)-5-methyl-9-(trifluoromethyl)-5H-pyrimido[1,2-a][1,4]benzodiazepin-3-one] | 113 | 2.13 | 6.6 | – |
| O=c1ccn2c(n1)CN=C(c1ncccc1F)c1c-2ccc(Cl)c1Cl [Example 3, 8,9-dichloro-7-(3-fluoro-2-pyridyl)-5H-pyrimido[1,2-a][1,4]benzodiazepin-3-one] | 192 | 2.92 | – | 10.3 |
| CCO/C=C/c1cn2c(nc1=O)[C@H](C)N=C(c1c(F)cccc1F)c1c-2ccc(Cl)c1Cl [Example 19, (5S)-8,9-dichloro-7-(2,6-difluorophenyl)-2-[(E)-2-ethoxyvinyl]-5-methyl-5H-pyrimido[1,2-a][1,4]benzodiazepin-3-one] | 104 | 2.04 | 4.9 | – |
| CCO/C=C/c1cn2c(nc1=O)CN=C(c1c(F)cccc1F)c1c-2ccc(Cl)c1Cl [Example 22, 8,9-dichloro-7-(2,6-difluorophenyl)-2-[(E)-2-ethoxyvinyl]-5H-pyrimido[1,2-a][1,4]benzodiazepin-3-one] | 113 | 2.13 | 2.1 | – |
